The text below walks through data of publication PMC6017062, “Probing the Inhibitor versus Chaperone Properties of sp^2-Iminosugars towards Human β-Glucocerebrosidase: A Picomolar Chaperone for Gaucher Disease” (Molecules : A Journal of Synthetic Chemistry and Natural …, 2018).

The test system of data set [1] is L444P mutant GCase. The conditions noted are these: homozygous L444P Gaucher fibroblasts; cited from earlier work.
Data set [2] deals with L444P mutant GCase. Also noted: method as in PMID 22512696. The conditions noted are these: homozygous L444P Gaucher lymphoblasts; cited from earlier work.
For data set [3], the target named is T1, human β-glucocerebrosidase (GCase) (Homo sapiens, UniProt P04062, R534H).
T1 construct: purchased Genzyme (Genzyme Japan, Tokyo, Japan) / Sanofi Genzyme, Cambridge, MA, USA Cerezyme
T1 sequence (P04062 40-536 R534H): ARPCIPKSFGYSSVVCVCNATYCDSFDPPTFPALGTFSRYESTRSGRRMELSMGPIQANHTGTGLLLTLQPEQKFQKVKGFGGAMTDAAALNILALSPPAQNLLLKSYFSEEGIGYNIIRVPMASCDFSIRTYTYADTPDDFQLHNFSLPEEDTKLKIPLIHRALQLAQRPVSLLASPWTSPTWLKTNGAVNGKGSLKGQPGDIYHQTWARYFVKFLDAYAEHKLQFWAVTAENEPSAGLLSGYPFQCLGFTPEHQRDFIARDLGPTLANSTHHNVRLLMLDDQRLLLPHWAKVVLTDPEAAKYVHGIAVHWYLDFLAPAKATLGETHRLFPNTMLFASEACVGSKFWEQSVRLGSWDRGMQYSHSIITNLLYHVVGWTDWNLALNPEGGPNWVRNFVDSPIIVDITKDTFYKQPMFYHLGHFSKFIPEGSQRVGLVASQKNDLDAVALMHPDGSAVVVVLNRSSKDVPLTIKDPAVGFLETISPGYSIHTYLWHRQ
Kind of data set: Purified recombinant human GCase inhibition in vitro. Format: biochemical. The settings on record: for Ki: purified recombinant enzyme (Cerezyme), 4-MU glucopyranoside substrate. The protocol: Comparative assessment of the inhibition abilities of 1–4 against human lysosomal glycosidases in cell lysates (in vitro enzyme assay; see Experimental Section) confirmed the selectivity pattern previously observed for the commercial enzymes: whereas GCase was responsive to μM concentrations of the sp^2-iminosugars, the activity of lysosomal α-glucosidase, α- and β-galactosidases, α- and β-mannosidases, and hexosaminidase was not affected at concentrations of up to 200 μM. The corresponding Ki values were determined at pH 7 and 5 using purified recombinant human GCase and 4-methylumbelliferone (4-MU)-conjugated […] as the substrate (Table 2).
GCase activities were determined as above using purified human GCase, obtained from Genzyme (Genzyme Japan, Tokyo, Japan) in 0.1 M citrate buffer at pH 5 or pH 7 and 4-methylumbelliferone (4-MU)-conjugated β-D-glucopyranoside as the substrate. The reactions were terminated by adding 0.2 mL of 0.2 M glycine sodium hydroxide buffer (pH 10.7). The liberated 4-methylumbelliferone was measured in a black-well plate with a Perkin Elmer Luminescence Spectrometer, Waltham, MA, USA (excitation wavelength: 340 nm; emission: 460 nm).

Data set [4] in a line: pKa determination. It counts as physicochemical.
Data set [5] concerns the target T2, N188S/G183W mutant GCase (Homo sapiens, UniProt P04062, N227S).
T2 construct: endogenous in cells; host or cells: skin fibroblasts of N188S/G183W type 3 Gaucher patients
T2 sequence (P04062 40-536 N227S): T1 sequence (P04062 40-536 R534H) with N188S, H495R
The data set can be described thus: Chaperone test in N188S/G183W type 3 Gaucher patient fibroblasts. It counts as cell-based. The settings on record: N188S/G183W Gaucher fibroblasts. The source says:
To test the chaperoning capabilities, Gaucher fibroblasts from patients hosting the adult neuronopathic (type 3) Gaucher disease-associated N188S/G183W mutant GCase were employed. It is worth mentioning that the neuronopathic clinical subtypes of Gaucher disease remain currently at orphan status, given the inability of the recombinant enzyme used in enzyme replacement therapy or the glucosylceramide synthase inhibitor Zavesca® used in substrate reduction therapy to cross the blood–brain barrier. This mutation is located in the catalytic domain (domain III) of GCase and has been previously found to be responsive to sp^2-iminosugar-type chaperones. […] Yet, the activity trend as a function of the chaperone concentration was starkly different between them. Thus, the nonreducing representatives 3 and 4 reached the maximum chaperoning effect at 200 nM and as low as 2 nM concentration, respectively, as compared with 20 and 2 μM for the reducing homologues 1 and 2.
(§1) Normal and Gaucher disease patients’ skin fibroblasts were cultured in Dulbecco modified Eagle’s medium (WAKO, Richmond, VA, USA) supplemented with 10% fetal bovine serum (Nichirei Biosci. Inc., Tokyo, Japan) at 37 °C in 5% CO2. For measurement of chaperone activities, fibroblasts were plated onto 35 mm dishes at 50,000 cells per dish. After 24 h incubation, the medium with the indicated concentrations of compound was applied and cells were cultured for 96 h. Then, the lysates in 0.1% Triton-X100/distilled H2O were collected from the cells and assayed for lysosomal GCase as described above. To measure the cytotoxic effect of the compounds, normal human fibroblasts were plated onto 35 mm dishes at 15,000 cells per dish and incubated overnight. Then, the medium was changed with or without compounds. After 24 h incubation, the supernatant of the cells was collected and measured by the lactate dehydrogenase assay (WAKO, Richmond, VA, USA). All the cell lines used were tested for mycoplasma contamination before conducting the chaperone and toxicity assays.

For data set [6], the target named is T3, GCase (Homo sapiens, UniProt P04062).
T3 construct: endogenous in cells; host or cells: normal human skin fibroblasts
T3 sequence (P04062 40-536): T1 sequence (P04062 40-536 R534H) with H495R
Kind of data set: GCase activity in cultured healthy human fibroblasts. It counts as cell-based. The settings on record: 5 days culture. As for the experimental part: For that purpose, cells were cultured for 5 days in the absence and in the presence of various concentrations of the compounds, then lysed, and the enzyme activity was determined using 4-methylumbelliferyl β-D-glucopyranoside as substrate. Higher GCase activities in the lysate indicate that larger amounts of the protein are present and that it is functional.
as §1

The mark [7] stands for this setting: pH 5, read-out: Ki human GCase, pH 5.
The mark [8] stands for this setting: pH 7, read-out: Ki human GCase, pH 7.

Usually Ki stands for a dissociation constant, usually derived from enzyme kinetics or from competition with a known ligand. The pKa is the negative logarithm of the acid dissociation constant. A higher pKa goes with a group that holds its proton tightly.

The structures appear in SMILES notation. Residue numbers refer to the chain shown, from its start. Read-outs that look alike come from different tables or passages of the source.

Take `CCCCCCCCCC(=O)OC[C@H](C[C@H]1NC[C@@H](O)[C@H](O)[C@H]1O)OC(=O)CCCCCCCCC` [Compound 23]: the “mutant GCase activity enhancement at 50 nM” value in data set [1] was 100%.
On to `CCCCCCCCCN[C@H]1[C@H](O)[C@@H](O)[C@H](O)[C@@H](O)[C@@H]1OCCCCCCCCC` [Compound 19, (1R,2S,3R,4S,5S,6R)-5-(nonylamino)-6-(nonyloxy)cyclohexane-1,2,3,4-tetraol], for which the “mutant GCase activity enhancement at 10 pM” value in data set [2] is on record as 40%.
In the case of `CCCCCCCCN=C1SCC2C(O)C(O)C(O)C(O)N12` (stereo not shown) [Compound 2], the “fold enhancement of GCase inhibition potency upon replacement of O-6 by sulfur, pH 5” value in data set [3] (pH 5, 2 vs 1, 4 vs 3) is given as 52 fold. The inhibition constant Ki in data set [3] (setting [7]) turned out to be 1.05 ± 0.068 µM; in data set [3] (setting [8]) it was 0.26 ± 0.013 µM. Further, the “fold enhancement of GCase inhibition potency upon replacement of O-6 by sulfur, pH 7” value in data set [3] (pH 7, 2 vs 1, 4 vs 3) came to 58 fold. In data set [4], this compound returned a pKa of 8.3. Further, the “concentration of maximum chaperoning effect” value in data set [5] is 2 µM. Besides, the “GCase activity in healthy human fibroblasts over the whole range of concentrations” value in data set [6] is reported as “essentially unaltered”.
Turning to `CCCCCCCCN=C1OCC2C(O)C(O)C(O)C(O)N12` (stereo not shown) [Compound 1], the inhibition constant (Ki) in data set [3] (setting [7]) worked out at 54.4 ± 0.38 µM; in data set [3] (setting [8]), 15.1 ± 0.97 µM. In data set [4], this compound displayed a pKa of 8.9. The “concentration of maximum chaperoning effect” value in data set [5] turned out to be 20 µM. Moreover, the “GCase activity in healthy human fibroblasts over the whole range of concentrations” value in data set [6] is reported as “essentially unaltered”.
Consider `CCCCCCCC/N=C1/OC[C@@H]2[C@@H](O)[C@H](O)[C@@H](O)CN12` [Compound 3], for which the “fold stronger GCase inhibition of nonreducing vs reducing partner” value in data set [3] (3 vs 1, 4 vs 2) is “about 10 fold”. Also, the Ki in data set [3] (setting [7]) came to 6.3 ± 0.16 µM. The Ki in data set [3] (setting [8]) was 1.7 ± 0.066 µM. The pKa in data set [4] was determined as 9.3. Also, in data set [5], the “concentration of maximum chaperoning effect” value was determined as 0.2 µM and the “concentration over which chaperone/inhibitor balance is unfavorable (net decrease in mutant enzyme activity vs control)” value is “over 20 μM”. In data set [6] (20 μM), the “GCase activity in lysates of healthy human fibroblasts at 20 μM” value is reported as “virtually full inhibition”. Further, the “GCase activity in lysates of healthy human fibroblasts at higher concentrations” value in data set [6] (concentrations higher than 20 nM) is listed as “significantly inhibited”.
